“Also recorded” adds a separate entry of the source.
Legend:
hepatic metastases = assay: Phase I study of lonidamine + radiation therapy in patients with hepatic metastases; format: in vivo, human (patients)
Procedure: Lonidamine has received extensive clinical assessment both as a single agent and in combination with radiation therapy. […] In this dosage peak plasma levels of 5 to 15 μg/ml are attained; this is within the range that enhances the effect of radiation and hyperthermia in model systems (24-26, 30, 37 and 38). Two combined lonidamine+radiation therapy studies have been conducted in patients with extensive hepatic or brain metastases, respectively. […] The study in patients with brain metastases employed a randomized comparative design. Fifty eight patients were enrolled; 31 received lonidamine plus whole brain radiation therapy (WBRT) 300 cGy×10; 27 received WBRT alone.

Meth-A fibrosarcoma [1] = assay: In vivo therapy with lonidamine, radiation and hyperthermia, tumor control; parameters: species or system BALB/cBy mice
Procedure: Localized radiation and hyperthermia was performed on BALB/cBy mice when tumors were 0.7+/-0.1 cucm and tumor analysis endpoints have been previously described. (26) Tumor control was defined as non-palpable tumor at 60 days. Waterbath temperatures were 41.7° C./65 minutes and […]/65 minutes×2 fractions. […] (Bailey, 26 g thermocouple) below circulated water bath temperatures. Separation between the two hyperthermia treatments was 72 hours.
Lonidamine administration at hour pre-radiation and immediately hyperthermia and was based on serum pharmacokinetic and radiation studies (25). Animals were primed at 100 mg/kg. s.c., 3 days pre-radiation or hyperthermia. At the initiation of radiation or hyperthermia, animals were inoculated 50 mg/kg i.p. 1 hour before treatment and 50 mg/kg s.c. at 48 hours post treatment. Animals were maintained (100 mg/kg) during fractionation and post treatment until recurrence to initial volumes.

Meth-A fibrosarcoma [2] = assay: In vivo trimodality therapy versus single and bimodality therapy, tumor growth delay; parameters: species or system mice; conditions: lonidamine 50 mg/kg/day
Excerpt: (§1) The effect of trimodality therapy has been examined in HeLa monolayer cell cultures and in the transplanted Meth-A fibrosarcoma. The studies in HeLa cell cultures used a single radiation fraction, and prompt subculture for clonal analysis, conditions which would reduce any heat or drug-induced effect on potential lethal damage. […] In vivo comparative assessment of trimodality therapy versus single and bimodality combination was made in the oxic Meth-A fibrosarcoma. The trimodality regimen consisted of lonidamine (50 mg/kg/day chronically throughout the period of observation), plus radiation therapy (6 Gy×5), and hyperthermia (41.2° C.×65 min pre radiation therapy on days 1 and 4 of therapy); the results are presented in FIG. 14.

brain metastases = conditions: cited from earlier work
[3] = cited from earlier work
[4] = system: multicellular HeLa spheroids; assay: Radio-enhancement in multicellular tumor spheroids (growth delay); format: cell-based, human
Excerpt: Based on these studies, and on supportive studies in mice receiving the drug chronically,Kim et al. proposed that optimal use of lonidamine would be to employ it both during and, in a prolonged exposure, after the course of radiation therapy.
The drug's radio-enhancing effects in multicellular tumor spheroids (MTS) was examined assessing growth delay following radiation with and without the drug.

[5] = system: Stage 2-4 head and neck cancer; conditions: cited from earlier work
spermatogenesis = conditions: in vivo; cited from earlier work
[6] = system: repair of radiation-induced potentially lethal damage (PLD); conditions: cited from earlier work
[7] = system: cell culture and murine tumor systems; conditions: cited from earlier work
[8] = system: oxidative and glycolytic metabolism of mammalian cells; conditions: cited from earlier work
HeLa cells = assay: Trimodality therapy in HeLa monolayer cell cultures; format: cell-based, human
Excerpt: Lonidamine was present only during heating.
as §1

[9] = single large daily dosage just prior to radiation

O=C(O)c1nn(Cc2ccc(Cl)cc2Cl)c2ccccc12 [lonidamine]
objective tumor regression (hepatic metastases; lonidamine + radiation therapy 250 to 500 cGy ×5): five of fifteen
patients with peak plasma levels ≥15 μg/ml, hepatic study (hepatic metastases; [9]): 11 of 17
patient tolerance of the combination (hepatic metastases; single large daily lonidamine dosage + radiation therapy): acceptable patient tolerance
tumor response, lonidamine+hyperthermia vs hyperthermia alone and radiation+lonidamine vs radiation alone (Meth-A fibrosarcoma [1]; 41.2° C. or 41.7° C., fractionated): No differences were observed
tumor response, lonidamine in adjuvant capacity (Meth-A fibrosarcoma [1]; adjuvant): Marginal differences in tumor response
tri-modality therapy vs single or bi-modality treatments (Meth-A fibrosarcoma [1]; mouse, in vivo): consistently greater effect when compared to single or bi-modality treatments
tumor control, tri-modality therapy (radiation+hyperthermia+lonidamine) (Meth-A fibrosarcoma [1]; non-palpable tumor at 60 days, 41.2° C. or 41.7° C.): 50-56%
tri-modality therapy vs radiation+hyperthermia at 41.2° C. (Meth-A fibrosarcoma [1]; tumor control): more effective than the tumor control for radiation+hyperthermia at 41.2 °C
day of tumor regrowth, trimodality therapy (Meth-A fibrosarcoma [2]; 6 Gy×5, 41.2° C.×65 min, regrowth not yet evident (radiation+hyperthermia: day 18)): > 32 days
tumor growth inhibition, radiation therapy+lonidamine, until day (Meth-A fibrosarcoma [2]; radiation 6 Gy×5 (radiation alone: day 11)): 13 days
tumor regression, trimodality therapy (Meth-A fibrosarcoma [2]; radiation 6 Gy×5, hyperthermia 41.2° C.×65 min days 1 and 4): tumor regression to the point of non-palpability
response or survival, lonidamine + WBRT vs WBRT alone (brain metastases; WBRT 300 cGy×10): no significant difference in response or survival
patients with peak plasma levels ≥15 μg/ml, WBRT study (brain metastases; [9]): 15 of 30
peak plasma levels ([3]; 150 mg t.i.d.): 5 to 15 µg/mL
tolerability ([3]; 150 mg t.i.d.): well tolerated by most patients
dose-limiting side effect ([3]; clinical): skeletal muscle discomfort
spheroid regrowth on lonidamine removal ([4]; lonidamine removed 5 days following the last radiation exposure): begins to grow again when lonidamine is removed
effect of fractionation of radiation dose on lonidamine effect ([4]; multicellular HeLa spheroids, with radiation): increased by fractionation of the radiation dose; also recorded: increased with increasing dose fractionation
disease free survival at 2 years (all patients) ([5]; Radiation Therapy+Lonidamine 150 mg t.i.d. (placebo arm: 25%)): 51%
complete response rate ([5]; Radiation Therapy+Lonidamine 150 mg t.i.d. (placebo arm: 58%)): 69%
remission duration ([5]; Radiation Therapy+Lonidamine 150 mg t.i.d. vs placebo arm): longer in the lonidamine treated arm
disease free survival rate versus radiation therapy ([5]; lonidamine + radiation therapy, placebo-controlled randomized study): significantly increased the disease free survival rate
inhibition of spermatogenesis (spermatogenesis): potent inhibitor of spermatogenesis in mammals
inhibition of repair of radiation-induced potentially lethal damage [6]: inhibitor of repair of radiation-induced potentially lethal damage; also recorded: established inhibitor of repair of potential lethal damage
pH dependence of hyperthermia enhancing effects ([7]; acidification of cell culture medium): greatly increased by acidification of the cell culture medium; also recorded: increased in cells under conditions of reduced extracellular pH
radiation and hyperthermia enhancement [7]: radiation and hyperthermia enhancing agent in cell culture and murine tumor systems; also recorded: enhanced cytotoxic effects in cells treated either with radiation or hyperthermia
effects on oxidative and glycolytic metabolism [8]: inhibitory effects on both oxidative and glycolytic metabolism of mammalian cells; also recorded: perturb energy metabolism in neoplastic cells
cytotoxic effect on HeLa cells (HeLa cells; 37° C.): no cytotoxic effect on HeLa cells at 37 °C
trimodality therapy vs radiation alone or bimodality therapy (HeLa cells; radiation therapy+lonidamine+mild hyperthermia (41.5° C.), single radiation fraction): clearly superior to radiation alone, or bimodality therapy

Source: patent publication US5260327A, “Methods for inhibiting the proliferation of brain and hepatic metastases by using lonidamine” (priority 1992, dated 1993)
